{"source": "patent US6869958B2", "about": "“Fused tetrahydropyridine derivatives as matrix metalloproteinase inhibitors” (Warner-Lambert Company, priority 2002, dated 2005)", "molecular_target": "T1, hMMP-13CD (Homo sapiens, UniProt P45452)", "T1 construct": "a human MMP-13 catalytic domain (“hMMP-13CD”)", "assay": "Inhibition of MMP-13 catalytic domain (IC50)", "format": "biochemical", "settings": "human MMP-13 catalytic domain", "description": "Thiopeptolide substrates show virtually no decomposition or hydrolysis at or below neutral pH in the absence of a matrix metalloproteinase enzyme. A typical thiopeptolide substrate commonly utilized for assays is Ac-Pro-Leu-Gly-thioester-Leu-Leu-Gly-OEt. A 100 μL assay mixture will contain 50 mM of N-2-hydroxyethylpiperazine-N′-2-ethanesulfonic acid buffer (“HEPES,” pH 7.0), 10 mM CaCl2, 100 μM thiopeptolide substrate, and 1 mM 5,5′-dithio-bis-(2-nitro-benzoic acid) (DTNB). The thiopeptolide substrate concentration may be varied, for example from 10 to 800 μM to obtain Km and Kcat values. The change in absorbance at 405 nm is monitored on a Thermo Max microplate reader (molecular Devices, Menlo Park, Calif.) at room temperature (22° C.). […]\nSome representative compounds of Formula I have been evaluated for their ability to inhibit MMP-13. Inhibitor activity versus other MMPs with the compounds may be determined using, for example, MMP-1FL, which refers to full length interstitial collagenase; MMP-2FL, which refers to full length Gelatinase A; MMP-3CD, which refers to the catalytic domain of stromelysin; MMP-7FL, which refers to full length matrilysin; MMP-9FL, which refers to full length Gelatinase B; MMP-13CD, which refers to the catalytic domain of collagenase 3; and MMP-14CD, which refers to the catalytic domain of MMP-14. […]", "note": "pIC50: −log10 of the molar value."}
{"smiles": "O=C(O)c1ccc(Cn2ccc3ccc(C#CCn4ccnn4)cc3c2=O)cc1", "note": "[4-[1-oxo-7-(3-[1,2,3]triazol-1-ylprop-1-ynyl)-1H-isoquinolin-2-ylmethyl]benzoic acid]", "values": [{"measurement": "pIC50", "value": "< 4.30"}]}
